Assay results: PMC5113906, “Ligand autoradiographical quantification of histamine H3 receptor in human dementia with Lewy bodies” (Pharmacological Research, 2016)

Biological target: T1, histamine H3 receptor (hH3R 445) (Homo sapiens, UniProt Q9Y5N1)
T1 construct: gene HRH3; hH3 445 isoform (also hH3 365), transiently expressed in HEK293 cells
Test: [3H]GSK189254 saturation radioligand binding; autoradiography on human brain sections

T1 sequence (Q9Y5N1 whole entry, canonical isoform): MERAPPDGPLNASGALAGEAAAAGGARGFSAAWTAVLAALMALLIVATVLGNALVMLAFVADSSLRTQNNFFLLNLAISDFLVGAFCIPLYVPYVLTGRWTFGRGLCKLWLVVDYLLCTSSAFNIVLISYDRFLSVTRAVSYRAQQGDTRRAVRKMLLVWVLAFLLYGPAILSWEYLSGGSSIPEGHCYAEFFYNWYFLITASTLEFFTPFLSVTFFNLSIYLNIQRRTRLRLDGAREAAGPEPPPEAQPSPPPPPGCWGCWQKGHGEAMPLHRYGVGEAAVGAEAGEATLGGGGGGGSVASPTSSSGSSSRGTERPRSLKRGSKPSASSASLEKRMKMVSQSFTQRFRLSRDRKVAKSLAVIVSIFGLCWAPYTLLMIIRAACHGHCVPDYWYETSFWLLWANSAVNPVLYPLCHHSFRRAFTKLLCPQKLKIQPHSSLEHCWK

Kd: 0.16 ± 0.04 nM
Compound: CNC(=O)c1ccc(Oc2ccc3c(c2)CCN(C2CCC2)CC3)nc1 [GSK189254]
